Measured values reported in patent US8653110B2, “Active compound combination comprising azadirachtin and a substituted enaminocarbonyl compound” (Bayer CropScience AG, priority 2010, dated 2014).

What was measured:
Assay type in all cases: in vivo
Tetranychus urticae = assay: Greenhouse red spider mite on roses (Example 7)
Method: Example 7 describes the effect of the combination according to the invention on the greenhouse red spider mite (Tetranychus urticae) on roses. The test was carried out in a greenhouse under GEP according to EPPO guideline PP 1/168(2) with 4 repetitions of in each case 4 plants. At the start of the infection, the plants were treated as follows: • 1. untreated • 2. compound (I-1) as SL 200 (compound according to formula (I-1), 17% strength), 50 g of active compound/ha • 3. azadirachtin 30 g of active compound/ha, NeemAzal® • 4. azadirachtin 5 g of active compound/ha, NeemAzal® • 5. compound (I-1) as SL 200+azadirachtin, 50+30 g of active compound/ha • 6. compound (I-1) as SL 200+azadirachtin, 50+5 g of active compound/ha • 7. positive control imidacloprid 100 g of active compound/ha
The spray solution was prepared by mixing commercial formulations and using water to adjust to the concentration mentioned. The application rate was 1000 l/ha. 2 applications were carried out at intervals of 14 days. The number of spider mites on days 2 to 32 after the first application was scored. What is shown is the effect of the products, which becomes evident in a reduction of the number of spider mites compared to the untreated control.

Phyllotreta nigripes = assay: Turnip flea beetle on cabbage (Example 10); settings: (I-1) 150, azadirachtin 30, (I-1)+azadirachtin 150+30, imidacloprid 100 g/ha
Method: Example 10 describes the effect of the combination according to the invention on caterpillars of the turnip flea beetle Phyllotreta nigripes on cabbage. The test was carried out according to EPPO guidelines PP 1/210(1), PP 1/152 (2), PP 1/181 (3) and PP 1/135 with 4 repetitions of in each case 10 plants. The plants were treated as follows: • 1. untreated • 2. compound (I-1) as SL 200 (compound according to formula (I-1), 17% strength), 150 g of active compound/ha • 3. azadirachtin 30 g of active compound/ha, NeemAzal® • 4. compound (I-1) as SL 200+azadirachtin, 150+30 g of active compound/ha • 5. positive control imidacloprid 100 g of active compound/ha
The spray solution was prepared by mixing commercial formulations and using water to adjust to the concentration mentioned. The application rate was 1000 l/ha. 2 applications were carried out at intervals of 14 days. The number of live caterpillars on days 7 to 32 after the first application was scored. What is shown is the effect of the products, which becomes evident in a reduction of the number of caterpillars compared to the untreated control.

Spodoptera exigua = Spodoptera exigua caterpillars on carnations, feeding damage (Example 1); settings: for Day 7 reduction of feeding damage in %: Day 7, (I-1) 150, azadirachtin 30, (I-1)+azadirachtin 150+30, imidacloprid 100 g of active compound/ha; for Day 32 reduction of feeding damage in %: Day 32, (I-1) 150, azadirachtin 30, (I-1)+azadirachtin 150+30, imidacloprid 100 g of active compound/ha; for Day 40 reduction of feeding damage in %: Day 40, (I-1) 150, azadirachtin 30, (I-1)+azadirachtin 150+30, imidacloprid 100 g of active compound/ha
Method: Example 1 describes the effect of the combination according to the invention on caterpillars of the owlet moth (Spodoptera exigua) on carnations (Dianthus caryophyllus). Azadirachtin was employed as NeemAzal® from Trifolio GmbH. The test was carried out according to EPPO guidelines PP 1/152 (2), PP 1/181 (3), PP 1/135 (3) and PP 1/210 (1) with 4 repetitions of in each case 10 plants. At the start of the infection, the plants were treated as follows: • 1. untreated • 2. compound (I-1) as SL 200 (17% strength), 150 g of active compound/ha • 3. azadirachtin 30 g of active compound/ha • 4. compound (I-1) as SL 200+azadirachtin, 150+30 g of active compound/ha • 5. positive control: imidacloprid 100 g of active compound/ha
The spray solution was prepared by mixing commercial formulations and using water to adjust to the concentration mentioned. The application rate was 1000 l/ha. 3 Applications were carried out at intervals of 10-14 days. The feeding damage caused by the caterpillars on the carnation leaves was scored at weekly intervals.

[1] = tested on: Trialeurodes vaporariorum; assay: Whiteflies on tomatoes, further test (Example 6)
Method: This example describes a further test with the formulation according to the invention against whiteflies (Trialeurodes vaporariorum) on tomatoes (Lycopersicon esculentum). The test was carried out under GEP according to EPPO guideline PP 1/36(2) with 4 repetitions of in each case 5 plants. At the start of the infection, the plants were treated as follows: • 1. untreated • 2. compound (I-1) as SL 200 (compound according to formula (I-1), 17% strength), 50 g of active compound/ha • 3. azadirachtin 15 g of active compound/ha, NeemAzal® • 4. azadirachtin 5 g of active compound/ha, NeemAzal® 5. compound (I-1) as SL 200+azadirachtin, 50+15 g of active compound/ha • 6. compound (I-1) as SL 200+azadirachtin, 50+5 g of active compound/ha • 7. positive control imidacloprid 100 g of active compound/ha
The spray solution was prepared by mixing commercial formulations and using water to adjust to the concentration mentioned. The application rate was 1000 l/ha. 2 applications were carried out at intervals of 10 days. The number of adult flies and the number of larvae were scored on days 2 to 32 after the first application. What is shown is the effect of the products, which becomes evident in a reduction of the number of insects or larvae compared to the untreated control. Imidacloprid was also tested, as positive control.

[2] = Day 2, (I-1) 50, azadirachtin 30, (I-1)+azadirachtin 50+30, imidacloprid 100 g/ha
[3] = Day 2, azadirachtin 5, (I-1)+azadirachtin 50+5 g/ha
[4] = Day 7, (I-1) 50, azadirachtin 30, (I-1)+azadirachtin 50+30, imidacloprid 100 g/ha
[5] = Day 7, azadirachtin 5, (I-1)+azadirachtin 50+5 g/ha
[6] = Day 14, (I-1) 50, azadirachtin 30, (I-1)+azadirachtin 50+30, imidacloprid 100 g/ha
[7] = Day 14, azadirachtin 5, (I-1)+azadirachtin 50+5 g/ha
[8] = Day 21, (I-1) 50, azadirachtin 30, (I-1)+azadirachtin 50+30, imidacloprid 100 g/ha
[9] = Day 21, azadirachtin 5, (I-1)+azadirachtin 50+5 g/ha
[10] = Days 28-32, (I-1) 50, azadirachtin 30, (I-1)+azadirachtin 50+30, imidacloprid 100 g/ha
[11] = Days 28-32, azadirachtin 5, (I-1)+azadirachtin 50+5 g/ha
[12] = Day 2, (I-1) 50, azadirachtin 15, (I-1)+azadirachtin 50+15, imidacloprid 100 g/ha
[13] = Day 7, (I-1) 50, azadirachtin 15, (I-1)+azadirachtin 50+15, imidacloprid 100 g/ha
[14] = Day 14, (I-1) 50, azadirachtin 15, (I-1)+azadirachtin 50+15, imidacloprid 100 g/ha
[15] = Day 21, (I-1) 50, azadirachtin 15, (I-1)+azadirachtin 50+15, imidacloprid 100 g/ha
[16] = Days 28-32, (I-1) 50, azadirachtin 15, (I-1)+azadirachtin 50+15, imidacloprid 100 g/ha

C/C=C(\C)C(=O)O[C@H]1C[C@@H](OC(C)=O)[C@@]2(C(=O)OC)CO[C@H]3[C@@H](O)[C@@](C)([C@]45O[C@@]4(C)[C@H]4C[C@@H]5O[C@@H]5OC=C[C@@]54O)[C@H]4[C@]1(CO[C@]4(O)C(=O)OC)[C@@H]32 [azadirachtin]
Activity against Tetranychus urticae [%] (Tetranychus urticae; [2]): 21%
Activity against Tetranychus urticae [%] (Tetranychus urticae; [3]): 30%
Activity against Tetranychus urticae [%] (Tetranychus urticae; [4]): 16%
Activity against Tetranychus urticae [%] (Tetranychus urticae; [5]): 0%
Activity against Tetranychus urticae [%] (Tetranychus urticae; [6]): 20%
Activity against Tetranychus urticae [%] (Tetranychus urticae; [7]): 10%
Activity against Tetranychus urticae [%] (Tetranychus urticae; [8]): 7%
Activity against Tetranychus urticae [%] (Tetranychus urticae; [9]): 19%
Activity against Tetranychus urticae [%] (Tetranychus urticae; [10]): 0%
Activity against Tetranychus urticae [%] (Tetranychus urticae; [11]): 6%
Activity against Phyllotreta nigripes [%] (Phyllotreta nigripes; Day 7): 29%
Activity against Phyllotreta nigripes [%] (Phyllotreta nigripes; Days 14-16): 51%
Activity against Phyllotreta nigripes [%] (Phyllotreta nigripes; Days 21-25): 35%
Activity against Phyllotreta nigripes [%] (Phyllotreta nigripes; Days 28-32): 34%
Day 7 reduction of feeding damage in % (Spodoptera exigua): 0%
Day 32 reduction of feeding damage in % (Spodoptera exigua): 92%
Day 40 reduction of feeding damage in % (Spodoptera exigua): 100%
Activity against adults [%] [1, 12]: 57%
Activity against larvae [%] [1, 12]: 0%
Activity against adults [%] [1, 3]: 41%
Activity against larvae [%] [1, 3]: 0%
Activity against adults [%] [1, 13]: 64%
Activity against larvae [%] [1, 13]: 0%
Activity against adults [%] [1, 5]: 41%
Activity against larvae [%] [1, 5]: 0%
Activity against adults [%] [1, 14]: 65%
Activity against larvae [%] [1, 14]: 20%
Activity against adults [%] [1, 7]: 40%
Activity against larvae [%] [1, 7]: 0%
Activity against adults [%] [1, 15]: 76%
Activity against larvae [%] [1, 15]: 32%
Activity against adults [%] [1, 9]: 47%
Activity against larvae [%] [1, 9]: 0%
Activity against adults [%] [1, 16]: 76%
Activity against larvae [%] [1, 16]: 37%
Activity against adults [%] [1, 11]: 40%
Activity against larvae [%] [1, 11]: 0%

O=C1C=C(N(Cc2ccc(Cl)nc2)CC(F)F)CO1 [(I-1), 4-{[(6-chloropyrid-3-yl)methyl](2,2-difluoroethyl)amino}furan-2(5H)-one]
Activity against Tetranychus urticae [%] (Tetranychus urticae; [2]): 28%
Activity against Tetranychus urticae [%] (Tetranychus urticae; [4]): 15%
Activity against Tetranychus urticae [%] (Tetranychus urticae; [6]): 43%
Activity against Tetranychus urticae [%] (Tetranychus urticae; [8]): 12%
Activity against Tetranychus urticae [%] (Tetranychus urticae; [10]): 15%
Activity against Phyllotreta nigripes [%] (Phyllotreta nigripes; Day 7): 0%
Activity against Phyllotreta nigripes [%] (Phyllotreta nigripes; Days 14-16): 9.5%
Activity against Phyllotreta nigripes [%] (Phyllotreta nigripes; Days 21-25): 7.4%
Activity against Phyllotreta nigripes [%] (Phyllotreta nigripes; Days 28-32): 2.8%
Day 7 reduction of feeding damage in % (Spodoptera exigua): 0%
Day 32 reduction of feeding damage in % (Spodoptera exigua): 49%
Day 40 reduction of feeding damage in % (Spodoptera exigua): 88%
Activity against adults [%] [1, 12]: 86%
Activity against larvae [%] [1, 12]: 0%
Activity against adults [%] [1, 13]: 88%
Activity against larvae [%] [1, 13]: 0%
Activity against adults [%] [1, 14]: 93%
Activity against larvae [%] [1, 14]: 18%
Activity against adults [%] [1, 15]: 96%
Activity against larvae [%] [1, 15]: 4%
Activity against adults [%] [1, 16]: 67%
Activity against larvae [%] [1, 16]: 68%

O=[N+]([O-])NC1=NCCN1Cc1ccc(Cl)nc1 [imidacloprid]
Activity against Tetranychus urticae [%] (Tetranychus urticae; [2]): 20%
Activity against Tetranychus urticae [%] (Tetranychus urticae; [4]): 16%
Activity against Tetranychus urticae [%] (Tetranychus urticae; [6]): 11%
Activity against Tetranychus urticae [%] (Tetranychus urticae; [8]): 27%
Activity against Tetranychus urticae [%] (Tetranychus urticae; [10]): 46%
Activity against Phyllotreta nigripes [%] (Phyllotreta nigripes; Day 7): 52%
Activity against Phyllotreta nigripes [%] (Phyllotreta nigripes; Days 14-16): 51%
Activity against Phyllotreta nigripes [%] (Phyllotreta nigripes; Days 21-25): 49%
Activity against Phyllotreta nigripes [%] (Phyllotreta nigripes; Days 28-32): 43%
Day 7 reduction of feeding damage in % (Spodoptera exigua): 0%
Day 25 reduction of feeding damage in % (Spodoptera exigua; Day 25, (I-1) 150, azadirachtin 30, (I-1)+azadirachtin 150+30, imidacloprid 100 g of active compound/ha): 100%
Day 32 reduction of feeding damage in % (Spodoptera exigua): 97%
Day 40 reduction of feeding damage in % (Spodoptera exigua): 100%
Activity against adults [%] [1, 12]: 91%
Activity against larvae [%] [1, 12]: 0%
Activity against adults [%] [1, 13]: 96%
Activity against larvae [%] [1, 13]: 57%
Activity against adults [%] [1, 14]: 98%
Activity against larvae [%] [1, 14]: 70%
Activity against adults [%] [1, 15]: 99%
Activity against larvae [%] [1, 15]: 68%
Activity against adults [%] [1, 16]: 91%
Activity against larvae [%] [1, 16]: 94%
